Laboratory results as given in US10703733B2, “MCL-1 inhibitors” (Gilead Sciences, Inc., priority 2018, dated 2020).
Like-named read-outs stand apart in the source and are kept apart here.

How the values were obtained:
SKBR3 cells = assay: SKBR3 Cell Viability Assay (CellTiter Glo); type: cell-based; settings: CellTiter Glo luminescence, read-out: MCL-1 CV SKBR3 EC50
Method: SKBR3 Cell Viability Assay Materials
SKBR3 Cells (ATCC HTB-30) were obtained from ATCC (Manassas, Va.) and cultured in McCoy 5A's medium (ATCC 30-2007)+10% fetal bovine serum (SH30071.03, HyClone, Pittsburgh, Pa.) plus 1× Penicillin-Streptomycin L-glutamine (Corning 30-009-C1, Corning, N.Y.)).
The cell viability assay was conducted in a 384-well tissue culture plate (Grenier 781086, Monroe, N.C.) in a total volume of 70 μL. Test compounds were prepared in 1,000×, serially diluted, and pre-spotted into 384-well tissue culture plate by Echo 555 Liquid Handler (Labcyte Inc., San Jose, Calif.). Seventy μl of 6,000 SKBR3 cells were dispensed into each well of the plate and incubated at 37° C. with 5% CO2 for 72 hours. At the end of incubation, 2× CellTiter Glo (CTG) reagents (1 part buffer with 2 parts substrate) (Promega, Madison, Wis.) were prepared, and the plate and the reagent were equilibrated to room temperature for 30 minutes. CTG reagent was added to each plate by Biomek FX at 20 μL/well with 5 times pipetting and mixing to induce cell lysis. Luminescence was read by Envision multimode reader (PerkinElmer). […] Percent inhibition was calculated as followed: % Inhibition=100%*(Well−Neg)/(Pos−Neg) Neg, negative control, DMSO Pos, positive control, 10 μM Puromycin

[1] = target: MCL-1/Bim interaction (recombinant human MCL-1 protein, residues 171-327; biotinylated human Bim peptide, residues 51-76) (Homo sapiens (Human), UniProt Q07820); assay: MCL-1/Bim Binding AlphaLISA Assay; settings: 0.0625 nM 6xHis-Mcl-1 (171-327), 0.0625 nM biotinylated-Bim peptide
Method: MCL-1/Bim Binding AlphaLISA Assay.
Inhibition of the MCL-1 and Bim interaction was measured in the following AlphaLISA assay.
Recombinant human MCL-1 protein (C-terminal 6×His Tagged Mcl-1 containing residues 171-327) was generated at Gilead Sciences, Inc. (Foster City, Calif.). A biotinylated peptide derived from human Bim (residues 51-76) was purchased from CPC Scientific (Sunnyvale, Calif.). (CPC 834113). AlphaLISA anti-6His-acceptor beads (AL128R), AlphaScreen Streptavidin donor beads (6760002B), and Proxiplate-384 Plus (6008289) were purchased from PerkinElmer.
The AlphaLISA assay was performed in a 384-well Proxiplate in a total volume of […]. The reaction mixture contained 0.0625 nM 6×His-Mcl-1 (171-327), 0.0625 nM biotinylated-Bim peptide, 10 μg/mL AlphaLISA anti-6×His-AlphaLISA acceptor beads, […] AlphaScreen streptavidin donor beads, and serially diluted test compounds in the binding buffer (20 mM Hepes, pH 7.5 (Teknova H1035); 150 mM NaCl (Promega V4221); 0.002% Brij 35 (Thermo Scientific 20150); 1 mM Dithiothreitol (DTT) Solution (Affymetrix 70726); 0.01% BSA (BioLabs B9000S)). 1,000×test compounds were pre-spotted onto 384-well Proxiplate (Labcyte Echo) by Echo 555 Liquid Handler (Labcyte Inc., San Jose, Calif.) followed by incubation of 5 μl Mcl-1(171-327) for 1 hour. Then 5 μL Bim (51-76) was added and incubated for 2 hours. Five μL AlphaLISA anti-6His-AlphaLISA acceptor beads were then added for 1 hour followed by addition of 5 μL AlphaScreen streptavidin donor beads for 1 hour. The reaction plates were then read on an Envision multimode reader (PerkinElmer) using AlphaScreen settings. […] Percent inhibition was calculated as shown below: % Inhibition=100%*(Well−Neg)/(Pos−Neg) Neg: negative control, DMSO Pos: positive control, no Mcl-1 protein, no biotinylated-Bim peptide

Chain of MCL-1/Bim interaction (recombinant human MCL-1 protein, residues 171-327; biotinylated human Bim peptide, residues 51-76) (Q07820 171-327): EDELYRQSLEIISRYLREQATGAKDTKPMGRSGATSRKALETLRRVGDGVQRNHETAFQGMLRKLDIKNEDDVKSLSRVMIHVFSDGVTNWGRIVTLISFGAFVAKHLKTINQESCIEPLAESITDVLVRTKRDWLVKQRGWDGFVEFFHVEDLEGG

| SMILES | EC50 (SKBR3 cells; Homo sapiens, SK-BR-3, 72 h) | IC50 [1] | EC50 (SKBR3 cells; 72 hours) |
| --- | --- | --- | --- |
| CO[C@H]1/C=C/CCC[S@@](=O)(NC(C)=O)=NC(=O)c2ccc3c(c2)N(C[C@@H]2CC[C@H]21)C[C@@]1(CCCc2cc(Cl)ccc21)CO3 [Example 25] | 2010 nM | 0.6 nM | – |
| CO[C@H]1/C=C/C[C@H](C)C[S@@](=O)(NC(=O)N2CC(CO)(OC)C2)=NC(=O)c2ccc3c(c2)N(C[C@@H]2CC[C@H]21)C[C@@]1(CCCc2cc(Cl)ccc21)CO3 [Example 267] | 184 nM | 0.03 nM | – |
| CCO[C@]1(C)C[C@H](NC(=O)N[S@@]2(=O)=NC(=O)c3ccc4c(c3)N(C[C@@H]3CC[C@H]3[C@@H](OC)/C=C/C[C@H](C)C2)C[C@@]2(CCCc3cc(Cl)ccc32)CO4)C1 [Example 225] | 51.3 nM | 0.043 nM | – |
| COc1nn(C)cc1C(=O)N[S@@]1(=O)=NC(=O)c2ccc3c(c2)N(C[C@@H]2CC[C@H]2[C@@H](OC(=O)CCN2CCOCC2)/C=C/C[C@H](C)C1)C[C@@]1(CCCc2cc(Cl)ccc21)CO3 [Example 300] | 26.8 nM | 0.026 nM | – |
| CCC(=O)N[S@@]1(=O)=NC(=O)c2ccc3c(c2)N(C[C@@H]2CC[C@H]2[C@@H](OC)CCCCC1)C[C@@]1(CCCc2ccccc21)CO3 [Example 16] | – | – | 10000 nM |
| COc1nn(C)cc1C(=O)N[S@@]1(=O)=NC(=O)c2ccc3c(c2)N(C[C@@H]2CC[C@H]2[C@@H](OC)/C=C/[C@H](O)[C@H](C)[C@H]1C)C[C@@]1(CCCc2cc(Cl)ccc21)CO3 [Example 374] | 47.5 nM | 0.058 nM | – |
| CCC(=O)N[S@@]1(=O)=NC(=O)c2ccc3c(c2)N(C[C@@H]2CC[C@H]2[C@@H](OC)CCCCC1)C[C@@]1(CCCc2cc(Cl)ccc21)CO3 [Example 12] | – | 1.7 nM | 4460 nM |
| CO[C@H]1/C=C/CCC[S@@](=O)(NC(=O)COC2CCN(C(=O)N(C)C)CC2)=NC(=O)c2ccc3c(c2)N(C[C@@H]2CC[C@H]21)C[C@@]1(CCCc2cc(Cl)ccc21)CO3 [Example 417] | 403 nM | 0.092 nM | – |
| CO[C@H]1/C=C/C[C@H](C)C[S@@](=O)(NC(=O)N2CC(OC(F)F)C2)=NC(=O)c2ccc3c(c2)N(C[C@@H]2CC[C@H]21)C[C@@]1(CCCc2cc(Cl)ccc21)CO3 [Example 354] | 36.9 nM | 0.039 nM | – |
| CO[C@H]1/C=C/CCC[S@@](=O)(NC(=O)CCc2nccn2C)=NC(=O)c2ccc3c(c2)N(C[C@@H]2CC[C@H]21)C[C@@]1(CCCc2cc(Cl)ccc21)CO3 [Example 43] | 2410 nM | 1.6 nM | – |
| CCc1nn(C)cc1C(=O)N[S@@]1(=O)=NC(=O)c2ccc3c(c2)N(C[C@@H]2CC[C@H]2[C@@H](OC)/C=C/C[C@H](C)C1)C[C@@]1(CCCc2cc(Cl)ccc21)CO3 [Example 187] | 43.1 nM | 0.107 nM | – |
| COCC1CN(C(=O)N[S@@]2(=O)=NC(=O)c3ccc4c(c3)N(C[C@@H]3CC[C@H]3[C@@H](OC)/C=C/C[C@H](C)C2)C[C@@]2(CCCc3cc(Cl)ccc32)CO4)C1 [Example 346] | 30.9 nM | 0.031 nM | – |
| CCC(=O)N[S@]1(=O)=NC(=O)c2ccc3c(c2)N(C[C@@H]2CC[C@H]2[C@@H](O)/C=C/CCC1)C[C@@]1(CCCc2cc(Cl)ccc21)CO3 [Example 63] | – | – | 9710 nM |
| CO[C@H]1/C=C/C[C@H](C)C[S@@](=O)(NC(=O)c2cc(CN3CCN(C4COC4)CC3)n(C)c2)=NC(=O)c2ccc3c(c2)N(C[C@@H]2CC[C@H]21)C[C@@]1(CCCc2cc(Cl)ccc21)CO3 [Example 309] | 10.5 nM | 0.029 nM | – |
| COC[C@@H]1Cn2cc(C(=O)N[S@@]3(=O)=NC(=O)c4ccc5c(c4)N(C[C@@H]4CC[C@H]4[C@@H](O)/C=C/C[C@H](C)C3)C[C@@]3(CCCc4cc(Cl)ccc43)CO5)cc2CO1 [Example 326] | 52.6 nM | 0.076 nM | – |
| CO[C@H]1/C=C/C[C@H](C)C[S@@](=O)(NC(=O)CO[C@H]2CCOC[C@H]2F)=NC(=O)c2ccc3c(c2)N(C[C@@H]2CC[C@H]21)C[C@@]1(CCCc2cc(Cl)ccc21)CO3 [Example 416] | 131 nM | 0.047 nM | – |
| CO[C@H]1/C=C/CCC[S@@](=O)(NC(=O)CCCC(F)(F)F)=NC(=O)c2ccc3c(c2)N(C[C@@H]2CC[C@H]21)C[C@@]1(CCCc2cc(Cl)ccc21)CO3 [Example 95] | 1100 nM | 1.1 nM | – |
| COC1Cc2cc(C(=O)N[S@@]3(=O)=NC(=O)c4ccc5c(c4)N(C[C@@H]4CC[C@H]4[C@@H](OC)/C=C/C[C@H](C)C3)C[C@@]3(CCCc4cc(Cl)ccc43)CO5)cn2C1 (stereo partly drawn) [Example 205] | – | – | 58.9 nM |
| CO[C@H]1/C=C/C[C@H](C)C[S@@](=O)(NC(=O)C2CC(OC(F)F)C2)=NC(=O)c2ccc3c(c2)N(C[C@@H]2CC[C@H]21)C[C@@]1(CCCc2cc(Cl)ccc21)CO3 (stereo partly drawn) [Example 431] | 233 nM | – | – |
| CCC(=O)NS1(=O)=NC(=O)c2ccc3c(c2)N(C[C@@H]2CC[C@H]2[C@@H](OC)/C=C/CCC1)C[C@@]1(CCCc2cc(Cl)ccc21)CO3 (single isomer, unassigned) [Example 4] | – | – | 899 nM |
| CO[C@H]1/C=C/C[C@H](C)[C@@H](C)[S@@](=O)(NC(=O)C(F)(F)F)=NC(=O)c2ccc3c(c2)N(C[C@@H]2CC[C@H]21)C[C@@]1(CCCc2cc(Cl)ccc21)CO3 [Example 370] | 5800 nM | – | – |
| CO[C@H]1/C=C/C[C@H](C)[C@@H](C)[S@@](=O)(NC(=O)c2cnn(C3COC3)c2)=NC(=O)c2ccc3c(c2)N(C[C@@H]2CC[C@H]21)C[C@@]1(CCCc2cc(Cl)ccc21)CO3 [Example 152] | – | – | 55.7 nM |
| CCC(=O)N[S@@]1(=O)=NC(=O)c2ccc3c(c2)N(C[C@@H]2CC[C@H]2[C@@H](OC)CCCCC1)C[C@@]1(CCCc2cc(Cl)ccc21)CO3 [Example 11] | – | – | 10000 nM |
| CO[C@H]1/C=C/CCC[S@@](N)(=O)=NC(=O)c2ccc3c(c2)N(C[C@@H]2CC[C@H]21)C[C@@]1(CCCc2cc(Cl)ccc21)CO3 [Example 5] | – | – | 10000 nM |
| CCOC(=O)N[S@]1(=O)=NC(=O)c2ccc3c(c2)N(C[C@@H]2CC[C@H]2[C@@H](OC)/C=C/CCC1)C[C@@]1(CCCc2cc(Cl)ccc21)CO3 [Example 9] | – | – | 7780 nM |
| CCC(=O)N[S@]1(=O)=NC(=O)c2ccc3c(c2)N(C[C@@H]2CC[C@H]2[C@@H](OC)/C=C/CCCC1)C[C@@]1(CCCc2cc(Cl)ccc21)CO3 [Example 69] | – | – | 7800 nM |
| CCNC(=O)N[S@@]1(=O)=NC(=O)c2ccc3c(c2)N(C[C@@H]2CC[C@H]2[C@@H](OC)CCCCC1)C[C@@]1(CCCc2cc(Cl)ccc21)CO3 [Example 14] | – | – | 356 nM |
| CCNC(=O)N[S@@]1(=O)=NC(=O)c2ccc3c(c2)N(C[C@@H]2CC[C@H]2[C@@H](OC)CCCCC1)C[C@@]1(CCCc2cc(Cl)ccc21)CO3 [Example 13] | – | – | 3270 nM |
| CCC(=O)N[S@@]1(=O)=NC(=O)c2ccc3c(c2)N(C[C@@H]2CC[C@H]2[C@@H](O)/C=C/CCC1)C[C@@]1(CCCc2cc(Cl)ccc21)CO3 [Example 62] | – | – | 2430 nM |
| CO[C@H]1/C=C/C[C@H](C)[C@@H](C)S(=O)(=O)NC(=O)c2ccc3c(c2)N(C[C@@H]2CC[C@H]21)C[C@@]1(CCCc2cc(Cl)ccc21)CO3 [Comparative Example 1, reference compound] | – | – | 2190 nM |
